Active and inactive are the calls of the source. No cut-off for these calls is given here.
Tests used:
[1] = target: T1, Thyrotropin-releasing hormone receptor 2 (Rattus norvegicus) (UniProt A6IZR3); assay: Displacement of [3H]3-methylhistidyl-TRH from rat recombinant TRH2 receptor expressed in […] cells up to 1 mM; assay type: cell-based
T1 sequence (whole entry): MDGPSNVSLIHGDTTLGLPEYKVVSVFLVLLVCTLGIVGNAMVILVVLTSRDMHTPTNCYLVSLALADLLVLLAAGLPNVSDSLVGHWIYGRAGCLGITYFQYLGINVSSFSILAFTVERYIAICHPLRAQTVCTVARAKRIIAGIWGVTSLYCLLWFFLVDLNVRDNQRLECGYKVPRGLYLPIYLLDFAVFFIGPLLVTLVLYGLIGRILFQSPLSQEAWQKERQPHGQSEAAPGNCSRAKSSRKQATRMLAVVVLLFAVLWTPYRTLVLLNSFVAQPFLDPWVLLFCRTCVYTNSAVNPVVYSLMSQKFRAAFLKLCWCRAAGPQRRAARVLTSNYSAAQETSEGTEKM

[2] = target: T2, Thyrotropin-releasing hormone receptor 2 (Rattus norvegicus, UniProt A6IZR3); assay: Displacement of [3H]3-methylhistidyl-TRH from rat recombinant TRH2 receptor expressed in […] cells; assay type: cell-based
T2 sequence (A6IZR3 whole entry): T1 sequence (whole entry)

| SMILES | Activity [1] | IC50 [2] [µM] |
| --- | --- | --- |
| Cc1c(O)cc(O)c(C(=O)CCc2ccccc2)c1O | inactive |  |
| Cc1c(O)c(C(=O)CCc2ccccc2)c(O)c(C(CCc2ccccc2)C2=C(O)C(C)(C)C(=O)C(C)(C)C2=O)c1O (centres undefined) [CORYMBONE A] |  | 23 |
| Cc1c(O)c(C(=O)CCc2ccccc2)c(O)c(C(CC(C)C)C2=C(O)C(C)(C)C(=O)C(C)(C)C2=O)c1O (centres undefined) [CORYMBONE B] |  | 19 |
| NC(=O)[C@@H]1CCCN1C(=O)[C@H](Cc1cnc[nH]1)NC(=O)[C@@H]1CCC(=O)N1 [PROTIRELIN] |  | 23 |
